Tests used:
[1] = biological target: Serine/threonine-protein kinase BRSK1 (Homo sapiens) (UniProt Q8TDC3); assay: Inhibition of recombinant human BrSK1 (2 to end residues) at 1 uM using KKKVSRSGLYRSPSMPENLNRPR as substrate after 40 mins in presence of [gamma-33P]ATP by scintillation counting method
[2] = biological target: Serine/threonine-protein kinase Chk1 (Homo sapiens) (UniProt O14757); assay: Inhibition of recombinant full-length human CHK1 at 1 uM using KKKVSRSGLYRSPSMPENLNRPR as substrate after 40 mins in presence of [gamma-33P]ATP by scintillation counting method
[3] = biological target: Casein kinase I isoform gamma-3 (Homo sapiens) (UniProt Q9Y6M4); assay: Inhibition of recombinant human CK1gamma3 (1 to 330 residues) at 1 uM using KRRRALS(p)VASLPGL as substrate after 40 mins in presence of [gamma-33P]ATP by scintillation counting method
[4] = biological target: Dual specificity protein kinase CLK1 (Homo sapiens) (UniProt P49759); assay: Inhibition of recombinant human CLK1 (130 to end residues) at 1 uM using ERMRPRKRQGSVRRRV as substrate after 40 mins in presence of [gamma-33P]ATP by scintillation counting method
[5] = test system: Epidermal growth factor receptor (Homo sapiens), P00533 [L858R]; assay: Inhibition of recombinant human EGFR L858R mutant (696 to end residues) at 1 uM using poly(Glu,Tyr) 4:1 as substrate after 40 mins in presence of [gamma-33P]ATP by scintillation counting method
[6] = biological target: Ephrin type-A receptor 7 (Homo sapiens) (UniProt Q15375); assay: Inhibition of recombinant human EPHA7 (613 to 909 residues) at 1 uM using KTFCGTPEYLAPEVRREPRILSEEEQEMFRDFDYIADWC as substrate after 40 mins in presence of [gamma-33P]ATP by scintillation counting method
[7] = biological target: Glycogen synthase kinase-3 beta (Homo sapiens) (UniProt P49841); assay: Inhibition of recombinant human GSK3beta (2 to end residues) at 1 uM using YRRAAVPPSPSLSRHSSPHQS(p)EDEEE (phospho GS2 peptide) as substrate after 40 mins in presence of [gamma-33P]ATP by scintillation counting method
[8] = biological target: Serine/threonine-protein kinase/endoribonuclease IRE1 (Homo sapiens) (UniProt O75460); assay: Inhibition of recombinant human IRE1 (465 to end residues) at 1 uM using myelin basic protein as substrate after 40 mins in presence of [gamma-33P]ATP by scintillation counting method
[9] = biological target: Mitogen-activated protein kinase 9 (Homo sapiens) (UniProt P45984); assay: Inhibition of recombinant full-length human JNK2alpha2 at 1 uM using ATF2 as substrate after 40 mins in presence of [gamma-33P]ATP by scintillation counting method
[10] = biological target: Mitogen-activated protein kinase kinase kinase 2 (Homo sapiens) (UniProt Q9Y2U5); assay: Inhibition of recombinant full-length human MEKK2 at 1 uM using myelin basic protein as substrate after 40 mins in presence of [gamma-33P]ATP by scintillation counting method
Mitogen-activated protein kinase kinase kinase 2 (Homo sapiens), sequence (Q9Y2U5 whole entry, the tested form may be a part): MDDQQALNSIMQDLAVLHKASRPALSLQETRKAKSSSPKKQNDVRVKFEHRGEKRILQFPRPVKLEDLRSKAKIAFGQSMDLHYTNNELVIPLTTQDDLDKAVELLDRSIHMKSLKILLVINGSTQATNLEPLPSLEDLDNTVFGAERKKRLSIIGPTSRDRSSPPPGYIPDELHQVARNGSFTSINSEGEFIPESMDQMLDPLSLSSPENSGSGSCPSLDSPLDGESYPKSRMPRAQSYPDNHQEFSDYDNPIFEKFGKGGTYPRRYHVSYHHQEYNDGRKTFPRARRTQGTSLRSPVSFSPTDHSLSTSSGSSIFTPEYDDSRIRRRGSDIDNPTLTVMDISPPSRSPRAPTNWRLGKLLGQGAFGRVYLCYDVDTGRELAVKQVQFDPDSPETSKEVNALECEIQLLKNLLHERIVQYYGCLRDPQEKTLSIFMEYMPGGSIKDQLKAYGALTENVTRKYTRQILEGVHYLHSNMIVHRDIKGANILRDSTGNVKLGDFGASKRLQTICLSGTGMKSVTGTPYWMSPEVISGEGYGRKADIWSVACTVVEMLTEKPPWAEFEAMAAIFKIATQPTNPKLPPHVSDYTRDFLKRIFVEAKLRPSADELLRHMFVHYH

[11] = biological target: Serine/threonine-protein kinase MRCK beta (Homo sapiens) (UniProt Q9Y5S2); assay: Inhibition of recombinant human MRCKbeta (1 to 473 residues) at 1 uM using KKRNRTLTV as substrate after 40 mins in presence of [gamma-33P]ATP by scintillation counting method
[12] = biological target: Myosin light chain kinase 2, skeletal/cardiac muscle (Homo sapiens) (UniProt Q9H1R3); assay: Inhibition of full-length recombinant human MYLK2 at 1 uM using KKLNRTLSFAEPG as substrate after 40 mins in presence of [gamma-33P]ATP by scintillation counting method
Myosin light chain kinase 2, skeletal/cardiac muscle (Homo sapiens), sequence (Q9H1R3 whole entry): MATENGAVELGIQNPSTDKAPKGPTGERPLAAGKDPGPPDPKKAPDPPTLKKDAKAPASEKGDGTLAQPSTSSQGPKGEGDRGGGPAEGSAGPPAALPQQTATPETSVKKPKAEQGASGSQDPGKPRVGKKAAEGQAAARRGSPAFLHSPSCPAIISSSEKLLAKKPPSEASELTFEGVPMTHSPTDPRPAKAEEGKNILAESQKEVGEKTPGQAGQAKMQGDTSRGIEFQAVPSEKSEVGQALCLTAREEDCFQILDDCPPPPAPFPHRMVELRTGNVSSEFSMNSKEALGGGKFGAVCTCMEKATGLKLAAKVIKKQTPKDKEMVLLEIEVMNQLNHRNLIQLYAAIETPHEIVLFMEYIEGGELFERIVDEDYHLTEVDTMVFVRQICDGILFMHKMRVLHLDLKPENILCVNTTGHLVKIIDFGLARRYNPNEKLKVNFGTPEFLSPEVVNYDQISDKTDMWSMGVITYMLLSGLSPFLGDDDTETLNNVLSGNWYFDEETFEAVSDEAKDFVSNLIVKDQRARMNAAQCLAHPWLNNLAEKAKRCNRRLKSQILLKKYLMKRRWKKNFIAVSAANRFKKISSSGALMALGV

[13] = biological target: Serine/threonine-protein kinase NLK (Homo sapiens) (UniProt Q9UBE8); assay: Inhibition of recombinant human NLK (121 to end residues) at 1 uM using myelin basic protein as substrate after 40 mins in presence of [gamma-33P]ATP by scintillation counting method
Serine/threonine-protein kinase NLK (Homo sapiens), sequence (Q9UBE8 whole entry): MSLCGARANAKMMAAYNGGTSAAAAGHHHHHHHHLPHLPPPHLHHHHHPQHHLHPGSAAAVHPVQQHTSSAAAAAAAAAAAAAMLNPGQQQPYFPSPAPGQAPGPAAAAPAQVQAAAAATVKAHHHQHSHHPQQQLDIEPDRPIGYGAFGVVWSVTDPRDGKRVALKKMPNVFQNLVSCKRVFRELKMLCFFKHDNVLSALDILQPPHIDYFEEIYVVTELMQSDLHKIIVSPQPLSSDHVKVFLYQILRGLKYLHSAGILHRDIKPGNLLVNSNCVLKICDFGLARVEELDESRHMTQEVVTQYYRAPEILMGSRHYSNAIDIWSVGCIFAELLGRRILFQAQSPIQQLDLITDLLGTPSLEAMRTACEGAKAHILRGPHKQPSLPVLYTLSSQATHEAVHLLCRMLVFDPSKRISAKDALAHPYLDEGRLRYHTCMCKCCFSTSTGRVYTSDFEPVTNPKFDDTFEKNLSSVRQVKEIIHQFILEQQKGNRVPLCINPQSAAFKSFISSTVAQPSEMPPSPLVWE

[14] = biological target: PI3K p110 alpha/p85 alpha (Mus musculus) (UniProt P26450+P42337); assay: Inhibition of recombinant full-length mouse p110a H1047R mutant/p85a at 1 uM using phosphatidylinositol 4,5-bisphosphate as substrate after 40 mins in presence of [gamma-33P]ATP by scintillation counting method; assay type: protein-complex assay
[15] = biological target: Protein kinase C zeta type (Homo sapiens) (UniProt Q05513); assay: Inhibition of recombinant human PKCzeta (2 to end residues) at 1 uM using ERMRPRKRQGSVRRRV as substrate after 40 mins in presence of [gamma-33P]ATP by scintillation counting method
Protein kinase C zeta type (Homo sapiens), sequence (Q05513 whole entry): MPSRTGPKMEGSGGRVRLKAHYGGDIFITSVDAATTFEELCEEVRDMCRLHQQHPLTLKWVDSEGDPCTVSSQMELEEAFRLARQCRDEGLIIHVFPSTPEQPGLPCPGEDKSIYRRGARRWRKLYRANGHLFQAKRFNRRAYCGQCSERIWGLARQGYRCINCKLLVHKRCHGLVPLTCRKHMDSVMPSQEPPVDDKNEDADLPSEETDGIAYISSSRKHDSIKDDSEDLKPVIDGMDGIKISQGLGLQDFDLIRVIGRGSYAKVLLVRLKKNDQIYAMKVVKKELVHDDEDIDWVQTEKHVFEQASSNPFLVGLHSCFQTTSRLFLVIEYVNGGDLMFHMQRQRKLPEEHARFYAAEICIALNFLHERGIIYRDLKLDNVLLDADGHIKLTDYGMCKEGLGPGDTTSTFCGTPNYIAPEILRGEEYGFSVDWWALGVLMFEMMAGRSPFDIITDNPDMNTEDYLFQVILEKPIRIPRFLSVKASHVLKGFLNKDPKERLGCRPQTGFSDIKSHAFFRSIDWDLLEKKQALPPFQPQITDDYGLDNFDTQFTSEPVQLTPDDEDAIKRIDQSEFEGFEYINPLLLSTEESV

[16] = biological target: cGMP-dependent protein kinase 1 (Homo sapiens) (UniProt Q13976); assay: Inhibition of recombinant full-length human PKG1alpha at 1 uM using RRRLSFAEPG as substrate after 40 mins in presence of [gamma-33P]ATP by scintillation counting method
cGMP-dependent protein kinase 1 (Homo sapiens), sequence (Q13976 whole entry): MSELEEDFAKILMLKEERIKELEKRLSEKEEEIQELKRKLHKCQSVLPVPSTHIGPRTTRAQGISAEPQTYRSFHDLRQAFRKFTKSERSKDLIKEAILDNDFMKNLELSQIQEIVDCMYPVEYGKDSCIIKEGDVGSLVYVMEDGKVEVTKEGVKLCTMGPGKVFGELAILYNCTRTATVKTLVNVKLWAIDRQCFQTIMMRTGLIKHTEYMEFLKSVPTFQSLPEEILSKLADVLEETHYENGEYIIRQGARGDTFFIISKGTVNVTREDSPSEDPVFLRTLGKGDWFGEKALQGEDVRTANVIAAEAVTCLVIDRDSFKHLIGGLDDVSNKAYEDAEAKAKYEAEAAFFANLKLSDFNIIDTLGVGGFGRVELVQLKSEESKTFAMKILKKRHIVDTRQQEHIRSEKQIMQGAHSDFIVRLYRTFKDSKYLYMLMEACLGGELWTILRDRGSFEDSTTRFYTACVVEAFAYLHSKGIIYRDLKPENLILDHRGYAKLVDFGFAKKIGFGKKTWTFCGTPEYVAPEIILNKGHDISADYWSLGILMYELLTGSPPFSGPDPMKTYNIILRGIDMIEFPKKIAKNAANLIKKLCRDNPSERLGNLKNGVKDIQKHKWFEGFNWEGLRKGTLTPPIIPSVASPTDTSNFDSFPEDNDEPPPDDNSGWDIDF

[17] = test system: Mitogen-activated protein kinase 14 (Homo sapiens), Q16539 [T106M]; assay: Inhibition of recombinant full-length human SAPK2a T106M mutant at 1 uM using myelin basic protein as substrate after 40 mins in presence of [gamma-33P]ATP by scintillation counting method
Mitogen-activated protein kinase 14 (Homo sapiens), Q16539 [T106M], sequence (Q16539 whole entry T106M, the tested form may be a part): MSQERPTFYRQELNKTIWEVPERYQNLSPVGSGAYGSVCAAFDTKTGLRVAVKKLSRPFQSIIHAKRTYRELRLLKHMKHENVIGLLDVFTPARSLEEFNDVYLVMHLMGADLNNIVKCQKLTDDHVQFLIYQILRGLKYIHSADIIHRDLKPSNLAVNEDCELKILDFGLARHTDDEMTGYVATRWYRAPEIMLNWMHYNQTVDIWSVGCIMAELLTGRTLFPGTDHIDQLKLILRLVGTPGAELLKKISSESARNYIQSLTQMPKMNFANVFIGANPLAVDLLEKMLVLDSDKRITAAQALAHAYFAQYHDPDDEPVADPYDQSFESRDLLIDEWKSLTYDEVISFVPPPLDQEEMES

[18] = biological target: STE20-like serine/threonine-protein kinase (Homo sapiens) (UniProt Q9H2G2); assay: Inhibition of recombinant human SLK (1 to 373 residues) at 1 uM using RLGRDKYKTLRQIRQ as substrate after 40 mins in presence of [gamma-33P]ATP by scintillation counting method
STE20-like serine/threonine-protein kinase (Homo sapiens), sequence (Q9H2G2 whole entry, looked up, the tested form may be a part): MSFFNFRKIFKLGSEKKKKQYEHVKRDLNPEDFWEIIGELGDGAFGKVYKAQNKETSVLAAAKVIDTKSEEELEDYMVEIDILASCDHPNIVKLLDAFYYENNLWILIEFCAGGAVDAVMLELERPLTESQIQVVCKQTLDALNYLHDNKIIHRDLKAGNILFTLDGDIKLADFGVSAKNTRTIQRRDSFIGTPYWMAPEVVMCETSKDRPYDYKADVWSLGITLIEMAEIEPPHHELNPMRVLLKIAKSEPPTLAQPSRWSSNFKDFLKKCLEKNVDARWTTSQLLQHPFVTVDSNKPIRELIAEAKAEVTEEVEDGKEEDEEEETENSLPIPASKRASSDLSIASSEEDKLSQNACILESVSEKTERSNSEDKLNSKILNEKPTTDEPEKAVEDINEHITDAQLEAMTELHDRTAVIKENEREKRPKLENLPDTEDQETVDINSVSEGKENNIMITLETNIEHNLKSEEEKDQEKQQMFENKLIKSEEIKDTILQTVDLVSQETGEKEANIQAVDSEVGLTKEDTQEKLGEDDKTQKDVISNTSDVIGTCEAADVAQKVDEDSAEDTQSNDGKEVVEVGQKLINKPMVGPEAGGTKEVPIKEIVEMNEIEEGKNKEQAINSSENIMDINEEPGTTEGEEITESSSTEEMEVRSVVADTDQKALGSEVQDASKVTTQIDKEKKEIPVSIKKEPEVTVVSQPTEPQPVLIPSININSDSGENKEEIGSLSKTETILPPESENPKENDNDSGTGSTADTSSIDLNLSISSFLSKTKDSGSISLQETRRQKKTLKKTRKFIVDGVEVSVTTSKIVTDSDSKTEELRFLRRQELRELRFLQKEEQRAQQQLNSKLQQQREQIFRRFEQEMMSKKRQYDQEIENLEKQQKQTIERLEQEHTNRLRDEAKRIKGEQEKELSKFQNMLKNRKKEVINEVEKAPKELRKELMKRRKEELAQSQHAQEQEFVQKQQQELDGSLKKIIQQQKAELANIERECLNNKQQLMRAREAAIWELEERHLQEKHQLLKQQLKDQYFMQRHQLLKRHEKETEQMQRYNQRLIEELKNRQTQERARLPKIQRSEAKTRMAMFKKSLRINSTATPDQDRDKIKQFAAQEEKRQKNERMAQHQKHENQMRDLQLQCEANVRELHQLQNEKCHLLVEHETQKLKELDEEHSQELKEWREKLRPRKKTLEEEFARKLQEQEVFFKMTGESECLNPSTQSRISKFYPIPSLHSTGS

[19] = biological target: Serine/threonine-protein kinase 25 (Homo sapiens) (UniProt O00506); assay: Inhibition of recombinant human STK25 (1 to 308 residues) at 1 uM using RLGRDKYKTLRQIRQ as substrate after 40 mins in presence of [gamma-33P]ATP by scintillation counting method
Serine/threonine-protein kinase 25 (Homo sapiens), sequence (O00506 whole entry, looked up, the tested form may be a part): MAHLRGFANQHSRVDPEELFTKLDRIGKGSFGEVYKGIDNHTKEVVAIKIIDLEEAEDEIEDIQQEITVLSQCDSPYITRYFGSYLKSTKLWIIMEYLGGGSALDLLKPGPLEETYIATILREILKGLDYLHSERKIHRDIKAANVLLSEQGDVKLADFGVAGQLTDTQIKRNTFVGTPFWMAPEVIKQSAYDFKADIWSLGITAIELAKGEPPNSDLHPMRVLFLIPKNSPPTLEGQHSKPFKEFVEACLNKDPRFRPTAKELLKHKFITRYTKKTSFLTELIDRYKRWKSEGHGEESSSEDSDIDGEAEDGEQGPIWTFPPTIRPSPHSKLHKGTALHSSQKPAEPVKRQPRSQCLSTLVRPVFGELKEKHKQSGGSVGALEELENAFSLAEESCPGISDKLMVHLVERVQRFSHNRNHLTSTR

[20] = biological target: Tau-tubulin kinase 1 (Homo sapiens) (UniProt Q5TCY1); assay: Inhibition of recombinant human TTBK1 (1 to 479 residues) at 1 uM using casein as substrate after 40 mins in presence of [gamma-33P]ATP by scintillation counting method
[21] = biological target: Serine/threonine-protein kinase WNK2 (Homo sapiens) (UniProt Q9Y3S1); assay: Inhibition of recombinant human WNK2 (166 to 489 residues) at 1 uM using myelin basic protein as substrate after 40 mins in presence of [gamma-33P]ATP by scintillation counting method
[22] = biological target: Serine/threonine-protein kinase ATR (Homo sapiens, UniProt Q13535); assay: Inhibition of recombinant full-length human ATR at 10 uM using GST-cMyc-p53 as substrate after 40 mins in presence of [gamma-33P]ATP by scintillation counting method
[23] = biological target: Protein-tyrosine kinase 6 (Homo sapiens) (UniProt Q13882); assay: Inhibition of recombinant full-length human BRK at 10 uM using poly(Glu,Tyr) 4:1 as substrate after 40 mins in presence of [gamma-33P]ATP by scintillation counting method

CS(=O)(=O)c1ccc(-n2nc(-c3cnc4[nH]ccc4c3)c3c(N)ncnc32)cc1
inhibition [1]: 13% | inhibition [2]: 2% | inhibition [3]: 9% | inhibition [4]: 10% | inhibition [5]: 5% | inhibition [6]: 0% | inhibition [7]: 2% | inhibition [8]: 2% | inhibition [9]: -6% | inhibition [10]: 5% | inhibition [11]: -4% | inhibition [12]: 18% | inhibition [13]: 18% | inhibition [14]: 14% | inhibition [15]: 3% | inhibition [16]: -8% | inhibition [17]: 0% | inhibition [18]: 7% | inhibition [19]: 45% | inhibition [20]: 11% | inhibition [21]: 23% | inhibition [22]: 106% | inhibition [23]: 102%

Reference: ChEMBL document CHEMBL4190187, “Discovery of pyrazolopyrimidine derivatives as novel inhibitors of ataxia telangiectasia and rad3 related protein (ATR)” (Bioorg Med Chem Lett, 2017)
